Laboratory results: patent US7476753B2, “3-aryl-2-cyano-3-hydroxy-acrylic acid derivatives” (Ciba Specialty Chemicals Corporation, priority 2003, dated 2009)
Converted amounts (≈) assume the structure as drawn.

How the values were obtained:
[1] = system: Actinomyces viscosus ATCC 43146; assay: Automatic MIC-Screening, broth dilution method; type: cell-based; conditions: micro titer plates, 37° C., 24 hours, tested 120 to 3.75 μg/ml
Procedure: (§1) Determination of the Minimum Inhibitory Concentration (MIC Value)
(§2) 8 μl of each dilution step is mixed with 192 μl of nutrient medium in micro titer plates. The plates are incubated at 37° C. for 24 hours and then the highest dilution (lowest concentration) of the test substance at which growth is just no longer discernible is determined (corresponds to the MIC).

[2] = system: Corynebacterium sp. (Corynebacterium xerosis ATCC 373 oder C. minutissimum ATCC 23348); assay: Automatic MIC-Screening, broth dilution method; type: cell-based; conditions: micro titer plates, 37° C., 24 hours, tested 120 to 3.75 μg/ml
Procedure: as §1, §2

[3] = system: Staphylococcus aureus ATCC 6538; assay: Automatic MIC-Screening, broth dilution method; type: cell-based; conditions: micro titer plates, 37° C., 24 hours, tested 120 to 3.75 μg/ml
Procedure: as §1, §2

[4] = system: A. actinomycetemcomitans ATCC43718; assay: MIC vs. oral germs, broth dilution method; type: cell-based, Actinobacillus actinomycetemcomitans; conditions: Aggregatibacter actinomycetemcomitans, ATCC43718, 24 h, read-out: MHK (MIC) A. actinomycetemcomitans ATCC43718
Excerpt: (§3) b) Determination of MIC vs. different oral germs in the broth dilution method • Medium: Thioglycolate Bouillon with Hemin and Menadion Columbia Bouillon with Hemin and Menadion für P. gingivalis und P. nigrescens • diluent: the corresponding amount of the substances was pippeted directly • Examples of Test organisms: • Actinobacillus actinomycetemcomitans ATCC43718 • Streptococcus gordonii ATCC10558 • Streptococcus mutans ATCC33402 • Actinomyces viscosus ATCC43146 • Fusobacterium nucleatum subsp. polymorphum ATCC1095 • Porphyromonas gingivalis ATCC3277 • Prevotella nigrescens ATCC33563 • Incubation: 7-10 days at 37° C. under anaerobic conditions, resp. 24 h aerobically with 10% CO2 for Streptococci und A. actinomycetemcomitans • Test solution: Stock solutions in ethanol with 1500 ppm (w/w) are used from all test substances
(§4) Bacteria are taken from blood agar plates with cotton swabs and a suitable O.D. is adjusted in the corresponding medium (McFarland 0.5). This solution is used for F. nucleatum and P. nigrescens in undiluted state, for the other strains a dilution of 1:20 is used. To each 2 ml of active ingredient containing solution 0.1 ml of the bacteria culture is added and incubated as described above.

S. gordonii ATCC10558 = assay: MIC vs. oral germs, broth dilution method; type: cell-based, Streptococcus gordonii; conditions: Streptococcus gordonii, ATCC10558, 24 h, read-out: MHK (MIC) S. gordonii ATCC10558
Excerpt: as §3, §4

S. mutans ATCC33402 = assay: MIC vs. oral germs, broth dilution method; type: cell-based, Streptococcus mutans; conditions: Streptococcus mutans, ATCC33402, 24 h, read-out: MHK (MIC) S. mutans ATCC33402
Excerpt: as §3, §4

A. viscosus ATCC43146 = assay: MIC vs. oral germs, broth dilution method; type: cell-based, Actinomyces viscosus; conditions: Actinomyces viscosus, ATCC43146, read-out: MHK (MIC) A. viscosus ATCC43146
Excerpt: as §3, §4

[5] = system: F. nucleatum subsp. polymorphum ATCC10953; assay: MIC vs. oral germs, broth dilution method; type: cell-based, Fusobacterium nucleatum subsp. polymorphum; conditions: Fusobacterium nucleatum, ATCC10953, read-out: MHK (MIC) F. nucleatum subsp. polymorphum ATCC10953
Excerpt: as §3, §4

P. gingivalis ATCC3277 = assay: MIC vs. oral germs, broth dilution method; type: cell-based, Porphyromonas gingivalis; conditions: Porphyromonas gingivalis, ATCC3277, read-out: MHK (MIC) P. gingivalis ATCC3277
Excerpt: as §3, §4

P. nigrescens ATCC33563 = assay: MIC vs. oral germs, broth dilution method; type: cell-based, Prevotella nigrescens; conditions: Prevotella nigrescens, ATCC33563, read-out: MHK (MIC) P. nigrescens ATCC33563
Excerpt: as §3, §4

[6] = system: Aspergillus niger ATCC 6275; assay: MIC, Agar incorporation test; type: cell-based; conditions: Aspergillus niger, ATCC6275
Procedure: (§5) 0.3 ml of each dilution step is mixed with 15 ml of nutrient medium while the latter is still liquid. After the nutrient medium has solidified, 10 μl of each of the following organism dilutions of the test strains in 0.85% NaCl solution are spotted onto the agar medium.
(§6) The plates are incubated during 24 hours at 37° C. and then the highest dilution (lowest concentration) of the test substance at which growth is just no longer discernible (corresponds to the MIC) is determined.

[7] = system: C. minutissimum ATCC 23348; assay: MIC, Agar incorporation test; type: cell-based; conditions: Corynebacterium minutissimum, ATCC23348, 24 hours at 37° C.
Procedure: as §5, §6

[8] = system: Corynebacterium xerosis ATCC 373; assay: MIC, Agar incorporation test; type: cell-based; conditions: Corynebacterium xerosis, ATCC373, 24 hours at 37° C.
Procedure: as §5, §6

[9] = system: Escherischia coli ATCC 10536; assay: MIC, Agar incorporation test; type: cell-based; conditions: 24 hours at 37° C.
Procedure: as §5, §6

[10] = system: Klebsiella pneumoniae ATCC 4352; assay: MIC, Agar incorporation test; type: cell-based; conditions: Klebsiella pneumoniae, ATCC4352, 24 hours at 37° C.
Procedure: as §5, §6

[11] = system: Propionibacterium acnes ATCC 6919; assay: MIC, Agar incorporation test; type: cell-based; conditions: Cutibacterium acnes, ATCC6919, 24 hours at 37° C.
Procedure: as §5, §6

[12] = system: Proteus vulgaris ATCC 6896; assay: MIC, Agar incorporation test; type: cell-based; conditions: Proteus vulgaris, ATCC6896, 24 hours at 37° C.
Procedure: as §5, §6

[13] = system: Pseudomonas aeruginosa ATCC 15442; assay: MIC, Agar incorporation test; type: cell-based; conditions: Pseudomonas aeruginosa, ATCC15442, 24 hours at 37° C.
Procedure: as §5, §6

[14] = system: Staphylococcus aureus ATCC 6538; assay: MIC, Agar incorporation test; type: cell-based; conditions: Staphylococcus aureus, ATCC6538, 24 hours at 37° C.
Procedure: as §5, §6

[15] = system: Staphylococcus epidermidis ATCC 12228; assay: MIC, Agar incorporation test; type: cell-based; conditions: Staphylococcus epidermidis, ATCC12228, 24 hours at 37° C.
Procedure: as §5, §6

[16] = system: Candida albicans ATCC 10231; assay: MIC, Agar incorporation test; type: cell-based; conditions: Candida albicans, ATCC10231, 72 h, Sabouraud 4% glucose agar, 3 days at 28° C.
Procedure: 0.3 ml of each dilution step is mixed with 15 ml of nutrient medium while the latter is still liquid. After the nutrient medium has solidified, 10 μl of each of the following organism dilutions of the test strains in 0.85% NaCl solution are spotted onto the agar medium. […]

SMILES | MIK (MIC) A. viscosus [1] [μγ/ml] | MIK (MIC) Corynebacterium sp. [2] [μγ/ml] | MIK (MIC) S. aureus [3] [μγ/ml] | MIC [4] [µg/mL] | MIC (S. gordonii ATCC10558) [µg/mL] | MIC (S. mutans ATCC33402) [µg/mL] | MIC (A. viscosus ATCC43146) [µg/mL] | MIC [5] [µg/mL] | MIC (P. gingivalis ATCC3277) [µg/mL] | MIC (P. nigrescens ATCC33563) [µg/mL] | MIC [6] [µg/mL] | MIC [7] [µg/mL] | MIC [8] [µg/mL] | MIC [9] [µg/mL] | MIC [10] [µg/mL] | MIC [11] [µg/mL] | MIC [12] [µg/mL] | MIC [13] [µg/mL] | MIC [14] [µg/mL] | MIC [15] [µg/mL] | further results
CCCCOC(=O)/C(C#N)=C(\O)c1ccc(-c2ccccc2)cc1 [(101b), 3-biphenyl-4-yl-2-cyano-3-hydroxy-acrylic acid butylester] | 7.5 | 15 | 7.5 | 15 (≈ 46.7 µM) | 3.75 (≈ 11.7 µM) | 5.63 (≈ 17.5 µM) | 3.75 (≈ 11.7 µM) | ≤ 0.94 | 3.75 (≈ 11.7 µM) | > 15 | > 100 | 12.5 (≈ 38.9 µM) | 3.13 (≈ 9.74 µM) | > 100 | > 100 | 12.5 (≈ 38.9 µM) | > 100 | > 100 | 6.25 (≈ 19.4 µM) | 6.25 (≈ 19.4 µM) | MIC [16]: > 100 µg/mL
CC(C)COC(=O)/C(C#N)=C(\O)c1ccc(-c2ccccc2)cc1 [(101c), 3-biphenyl-4-yl-2-cyano-3-hydroxy-acrylic acid isobutylester] | 7.5 | 7.5 | 7.5 | 15 (≈ 46.7 µM) | 3.75 (≈ 11.7 µM) | 5.63 (≈ 17.5 µM) | 7.5 (≈ 23.3 µM) | 7.5 (≈ 23.3 µM) | 7.5 (≈ 23.3 µM) | > 15 | > 50 | 12.5 (≈ 38.9 µM) | 3.13 (≈ 9.74 µM) | > 50 | > 50 | 12.5 (≈ 38.9 µM) | > 50 | > 50 | 12.5 (≈ 38.9 µM) | 6.25 (≈ 19.4 µM) | MIC [16]: > 50 µg/mL
CCCCCCCCOC(=O)/C(C#N)=C(\O)c1ccc(-c2ccccc2)cc1 [(101d), 3-biphenyl-4-yl-2-cyano-3-hydroxy-acrylic acid octylester] | <3.75 | <3.75 | <3.75 | ≥ 15 | ≤ 0.94 | ≤ 0.94 | ≤ 0.94 | 15 (≈ 39.7 µM) | 7.5 (≈ 19.9 µM) | > 15 | > 400 | < 1.56 | < 1.56 | > 400 | > 400 | 6.25 (≈ 16.6 µM) | > 400 | > 400 | < 1.56 | < 1.56 | MIC [16]: > 400 µg/mL
